In assay [1] the test system is TAA-induced liver fibrotic C57BL/6J mice. Description: Real-time PCR of liver fibrotic and inflammatory genes. The settings on record: CX groups (20 and 50 mg/kg oral, 6 weeks); vs TAA group. In kind it is in vivo. As for the experimental part:
For tests of adlay extracts, mice were randomly divided into the following seven groups (n=6, per group): (1) No treatment group (NT, normal diet), (2) Thioacetamide group (TAA, 200 mg/kg, normal diet), (3) 10% adlay seed powder (ASP) group, (4) 1% adlay leaf powder (ALP) group, (5) 1% adlay seed polysaccharide (ASPS) group, (6) 0.025% adlay seed ethanolic extract (ASE) group and (7) 0.1% ASE group. NT group received pure saline, and other groups intraperitoneally injected with TAA dissolved into saline thrice a week.
For tests of CX, mice were randomly divided into the following four groups (n=8, per group): (1) NT group, (2) TAA group (200 mg/kg), (3) CX group (CX20, 20 mg/kg), and (4) CX group (CX50, 50 mg/kg). NT group received pure saline, and other groups intraperitoneally injected with TAA dissolved into saline thrice a week. Moreover, NT group and TAA group also received 5% propylene glycol, while CX groups received CX dissolved into 5% propylene glycol (prepared in 0.9% saline) by oral gavage once per day.
The procedure of real-time PCR analysis is as follows. Total RNA was extracted with the Trizol reagent (Ambion, USA) and then reverse-transcribed into cDNA with RevertAid First Strand cDNA Synthesis kit (Thermo Scientific, USA). The PCR amplification was accomplished with SYBR Green PCR Master Mix (Applied Biosystems, USA), and the mRNA expression of the gene was normalized to GAPDH. All primers were obtained from Genomics (Genomics, Taiwan). Rat primer sequences are used for real-time PCR of HSC-T6 cells, and mouse primer sequences are used for real-time PCR of C57BL/6J mice.
A general note: In qPCR the cycle at which signal appears reflects the starting amount.

The subject of assay [2] is TGF-β/SMAD signaling pathway. Description: Western blot of TGF-β/SMAD signaling pathway proteins. The assay is classed as cell-based, rat. Particulars: HSC-T6, TGF-β1 10 ng/mL, CX 10-100 μM. As for the experimental part:
(§1) The procedure of cell cultures is as follows. HSC-T6 cell is an immortalized cell line isolated from transformed SV40 large T-antigen transformed primary stellate cells of male Sprague-Dawley rats. HSC-T6 cells were maintained in Dulbecco's Modified Eagle Medium (DMEM, Sigma-Aldrich, USA) containing 8% fetal bovine serum (FBS, HyClone, USA), 100 U/mL of penicillin, and 100 μg/mL of streptomycin (Gibco, USA).
(§2) For hepatic stellate cell (HSC) activation, cells were cultured for 24 h and then replaced with serum-free medium for 24 h, after that, treated with transforming growth factor beta 1 (TGF-β1) (10 ng/mL) in the presence or absence of CX (10-100 μM) or adlay leaf, root, and seed extracts (25 and 50 μg/mL) for 24 h, or 30 min for intracellular signal pathways.
(§3) The procedure of Western blot analysis is as follows. Cells were lysed in RIPA buffer with protease inhibitor and then centrifuged at 4° C., 12000 rpm for 10 min. Collected the supernatant and quantified the total protein concentration to 50 μg. After heating at 95° C. for 10 min, the protein samples were separated by SDS-PAGE gel, transferred to PVDF membrane, followed by blocking with 6% milk, incubated with primary antibodies at 4° C., overnight and secondary antibodies at room temperature for 1 h. Blot images were visualized on Amersham Imager 680 (Cytiva, USA) with ECL agent (GeneDireX, USA).

Assay [3] deals with PI3K and ERK signaling pathway. Description: Western blot of PI3K and ERK signaling pathway. In kind it is cell-based, rat. The settings on record: TGF-β1-activated HSC-T6 cells, CX. As for the experimental part: as §1, §2, §3
(Immunoblotting shows a protein as a band on a membrane.)

With `COc1ccc2[nH]c(=O)oc2c1` [CX, 6-methoxybenzoxazolinone], in assay [1], the “TAA-induced downregulation of liver IL-10 mRNA level” value is on record as “significantly decreased”, the “TAA-induced upregulation of liver COL1A1 mRNA” value is on record as “significantly decreased”, the “TAA-induced upregulation of liver IL-6 mRNA level” value was “significantly decreased” and the “TAA-induced upregulation of liver TNF-α mRNA level” value is “significantly decreased”. For the same molecule, the “TAA-induced upregulation of liver α-SMA mRNA” value in assay [1] is “significantly decreased”. In assay [2], the “NOX4 expression (Western blot)” value is reported as “decreased”, the “SNAIL1/2 expression (Western blot)” value is “decreased”, the “TWIST1/2 expression (Western blot)” value was “decreased” and the “ZEB1 expression (Western blot)” value is given as “decreased”. For the same molecule, in assay [2] (30 min), the “TGF-β1-stimulated SMAD2 phosphorylation (p-SMAD2, Western blot)” value was “decreased with increasing dose” and the “TGF-β1-stimulated SMAD3 phosphorylation (p-SMAD3, Western blot)” value is given as “decreased with increasing dose”. In assay [3], the “phosphorylation of ERK (p-ERK1/2, Western blot)” value was “did not cause significant changes” and the “phosphorylation of PI3K (p-PI3K, Western blot)” value is “did not cause significant changes”.

(Values after patent US20250017907A1, “METHOD FOR PREVENTING AND/OR TREATING LIVER FIBROSIS BY USING 6-METHOXYBENZOXAZOLINONE AND COIX LACHRYMA-JOBI L. EXTRACT COMPRISING 6-METHOXYBENZOXAZOLINONE” (Taichung District Agricultural Research and Extension …, priority 2023, published 2025).)
